Common to all, as to experiment: inhibition of tumour cell growth, NCI panel, 48 h
Test [1] concerns BT-549.
For test [2], the system named is HCT-116.
The test system of test [3] is HCT-15.
The test system of test [4] is HL-60.
In test [5] the test system is Hs-578T.
The test system of test [6] is IGROV-1.
In test [7] the test system is KM12.
Test [8] relates to MOLT-4.
The subject of test [9] is NCI-H23.
The subject of test [10] is NCI-H522.
Test [11] relates to OVCAR-4.
In test [12] the test system is RXF 393.
Test [13] deals with SK-MEL-5.
For test [14], the system named is SK-OV-3.
In test [15] the test system is SNB-75.
Test [16] has as its system OVCAR-3.
In test [17] the test system is PC-3.
The subject of test [18] is U-251.
For test [19], the system named is UACC-257.
Test [20] deals with HCC 2998.

Structures are written as SMILES.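 Briefly, cells in 96-well plates were exposed to five compound concentrations for 48 h, and endpoints were estimated by linear interpolation. GI50: concentration for 50% inhibition of growth.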 Calls of active or inactive are those of the source. Rule as the data show it: active = GI50 up to about 1.1 µM and inactive = higher.

These results are taken from ChEMBL document CHEMBL1201862, “PubChem BioAssay data set” (2004).

For the molecule `C=CCOC(=O)CC[C@H](NC(=O)[C@@H](CCC(F)(F)F)Cc1ccc(O)cc1)C(=O)OCC=C`, the GI50 is > 100 µM (inactive) in test [1]; > 100 µM (inactive) in test [2]; more than 100 µM in test [3]; 85.9 µM (inactive) in test [4]; 36.7 µM (inactive) in test [5]; > 100 µM (inactive) in [6]. The GI50 in [7] is > 100 µM (inactive); in test [8], 27.7 µM (inactive); in [9], 38.5 µM (inactive); in test [10] it was 24.3 µM (inactive); in test [11] it was 65.2 µM (inactive); in test [12], > 100 µM (inactive). Further, the GI50 was 18.5 µM (inactive) in [13], > 100 µM (inactive) in test [14] and 28.8 µM (inactive) in test [15].

With `CC1COC(c2cn[nH]c2C(N)=O)C1O` (stereo not given), the GI50 in [1] was > 100 µM (inactive); in test [2], > 100 µM (inactive); in test [3], more than 100 µM; in test [4] it was > 100 µM (inactive); in test [5], > 100 µM (inactive); in test [6], > 100 µM (inactive). Further, the GI50 in test [7], in [8], in test [9], in [10], in test [16] and in test [11] was > 100 µM (inactive) throughout. For the same molecule, the GI50 in test [17], in test [13], in test [14], in [15], in test [18] and in test [19] was > 100 µM (inactive) throughout.

Consider `O=C1C=C2CC[C@H]3[C@@H]4CC[C@H](Oc5c6ccccc6nc6ccccc56)[C@H]4CC[C@@H]3[C@H]2CC1`, for which the GI50 was 20.3 µM (inactive) in [1]; 37.1 µM (inactive) in test [2]; 24.7 µM in test [3]; 12.2 µM (inactive) in [4]; 26.8 µM (inactive) in test [5]; 31.9 µM (inactive) in test [6]. Further, the GI50 in test [7] is 39.6 µM (inactive); in test [9], 27.6 µM (inactive); in test [16], 42.6 µM (inactive); in [11], 52.7 µM (inactive); in test [17] it was 33.4 µM (inactive); in [12], 26.2 µM (inactive). For the same molecule, the GI50 in test [13] is 22.5 µM (inactive); in test [14], 60.8 µM (inactive); in [15], 28.3 µM (inactive); in test [18], 41.9 µM (inactive); in [19], 35.6 µM (inactive).

In the case of `C=C(Br)C/N=C/N(C)C`, the GI50 in test [1] was > 100 µM (inactive); in test [2], > 100 µM (inactive); in test [3] it was more than 100 µM; in test [4], > 100 µM (inactive); in [5] it was > 100 µM (inactive); in test [6] it was > 100 µM (inactive). In addition, the GI50 in [8], in [9], in test [10], in [16], in [11] and in [17] was > 100 µM (inactive) each time. Also, the GI50 in [12], in [13], in [14], in test [15], in test [18] and in test [19] was > 100 µM (inactive) in each case.

On to `COc1ccc(-c2nc3ncccn3c2-c2ccc(SC)cc2)cc1`, for which the GI50 in [1] is 1.45 µM (inactive); in test [2], 1.1 µM (active); in test [3] it was 1.51 µM; in test [4], 1.73 µM (inactive); in [5], 1.74 µM (inactive); in test [6], 2.04 µM (inactive). Besides, the GI50 is 0.453 µM (active) in [7]; 3.7 µM (inactive) in [8]; 3.3 µM (inactive) in test [9]; 0.23 µM (active) in [10]; 0.44 µM (active) in test [16]; 8.69 µM (inactive) in test [11]. Further, the GI50 was 3.13 µM (inactive) in test [17]; 0.953 µM (active) in test [13]; 0.439 µM (active) in [14]; 5.96 µM (inactive) in test [15]; 2.44 µM (inactive) in test [18]; > 100 µM (inactive) in test [19].

For the molecule `Cn1nc(/C=C\C(=O)N2CC(CCl)c3c2cc(N)c2ccccc32)cc1/C=C/C(=O)N1CC(CCl)c2c1cc(N)c1ccccc21` (stereo not given), the GI50 in test [1] is < 0.01 µM (active); in test [20], < 0.01 µM (active); in [2], < 0.01 µM (active); in [3] it was 0.0119 µM; in [7] it was < 0.01 µM (active); in test [8], < 0.01 µM (active). Also, the GI50 in test [9], in [10], in [16], in test [11], in test [17] and in [12] was < 0.01 µM (active) each time. Also, the GI50 in test [13] was < 0.01 µM (active); in [14] it was < 0.01 µM (active); in [15] it was < 0.01 µM (active); in test [18] it was < 0.01 µM (active); in [19], 0.0225 µM (active).

As for `CC[C@@]1(O)C(=O)OCc2c1cc1n(c2=O)Cc2c-1nc1ccccc1c2/C=N\NC(=O)C(N)Cc1ccc(O)cc1` (stereo not given in full), the GI50 in [1] was 1.9 µM (inactive); in test [20] it was 4.03 µM (inactive); in test [2], 0.804 µM (active); in [3] it was 4.32 µM; in test [4] it was 0.146 µM (active); in test [5], 7.43 µM (inactive). Further, the GI50 in [6] is 2.52 µM (inactive); in [7], 3.37 µM (inactive); in test [8], 0.0658 µM (active); in test [9], 0.233 µM (active); in test [10] it was 0.998 µM (active); in test [11] it was 6.61 µM (inactive). Further, the GI50 was 0.638 µM (active) in [13]; 0.869 µM (active) in test [14]; 0.415 µM (active) in [15]; 0.248 µM (active) in test [18]; 2.45 µM (inactive) in test [19].

As to `CCOC(=O)Nc1nn(C)/c(=N/Cc2ccccc2)s1`, the GI50 in [1] was 85.1 µM (inactive); in test [2], > 100 µM (inactive); in test [3], more than 100 µM; in test [4], > 100 µM (inactive); in test [5], > 100 µM (inactive); in test [6], > 100 µM (inactive). For the same molecule, the GI50 is > 100 µM (inactive) in test [7]; > 100 µM (inactive) in [8]; 86.3 µM (inactive) in test [10]; > 100 µM (inactive) in [16]; > 100 µM (inactive) in test [11]; > 100 µM (inactive) in [17]. Besides, the GI50 in test [12], in [13], in [14], in [15], in [18] and in test [19] was > 100 µM (inactive) in each case.

Regarding `CC(C)CC(NC=O)C(=O)NC(Cc1ccccc1)NC(=O)CNC(=O)C(C)NC(=O)OC(C)(C)C` (stereo not given), the GI50 in test [1] was > 100 µM (inactive); in [2], > 100 µM (inactive); in test [3] it was more than 100 µM; in test [4] it was > 100 µM (inactive); in [5] it was > 100 µM (inactive); in test [6], > 100 µM (inactive). Further, the GI50 in test [7], in test [8], in [9], in [10], in test [16] and in test [11] was > 100 µM (inactive) in each case. For the same molecule, the GI50 in [17], in test [12], in test [13], in test [14], in test [15] and in test [18] was > 100 µM (inactive) in each case.

Regarding `O=C1Nc2ccc(S(=O)(=O)O)cc2/C1=N/Nc1ccccc1[N+](=O)[O-]`, the GI50 in [1] was > 100 µM (inactive); in test [2], > 100 µM (inactive); in test [3] it was 84.1 µM; in test [5], > 100 µM (inactive); in test [6], > 100 µM (inactive); in [7], > 100 µM (inactive). In addition, the GI50 in test [8], in test [9], in [10], in test [16], in [11] and in test [17] was > 100 µM (inactive) throughout. The GI50 is > 100 µM (inactive) in test [12]; > 100 µM (inactive) in test [13]; 97.9 µM (inactive) in [14]; > 100 µM (inactive) in test [15]; > 100 µM (inactive) in test [18]; > 100 µM (inactive) in test [19].

Turning to `O=C(COc1ccc(OCC(=O)N2C(=O)CC(=O)N(c3ccccc3)C2=S)cc1)N1C(=O)CC(=O)N(c2ccccc2)C1=S`, the GI50 was 78.7 µM (inactive) in test [1]; 97.3 µM (inactive) in [20]; 22.5 µM (inactive) in test [2]; 88.5 µM in test [3]; 38.7 µM (inactive) in [6]; 27.4 µM (inactive) in test [7]. The GI50 in [8] is 41.8 µM (inactive); in [9], 64.4 µM (inactive); in test [10], 38.1 µM (inactive); in test [11] it was 44.4 µM (inactive); in test [17], 56.9 µM (inactive); in test [12], 25.5 µM (inactive). Further, the GI50 was 77.4 µM (inactive) in test [14], > 100 µM (inactive) in [15], 46.1 µM (inactive) in test [18] and 82.2 µM (inactive) in [19].
